Data as given in PMC9667936, “Functional mapping of the 14-3-3 hub protein as a guide to design 14-3-3 molecular glues” (Chemical Science, 2022).
Like-named read-outs stand apart in the source and are kept apart here. Where a SMILES comes first, the peptide text is derived from it. [ ]: non-standard residue; d: D form. ξ: configuration not given here. Phe(4-NO2) = N[C@@H](Cc1ccc([N+](=O)[O-])cc1)C(=O)O; ξAla(4-thiazolyl) = NC(Cc1cscn1)C(=O)O; pS = N[C@@H](COP(=O)(O)O)C(=O)O; β3hS = N[C@@H](CO)CC(=O)O; Nva = CCC[C@H](N)C(=O)O; βAla = NCCC(=O)O

Target: T1, 14-3-3γ (Homo sapiens, UniProt P61981)
T1 construct: made in house; host or cells: E. coli NiCo21 (DE3)
T1 sequence (P61981 1-247): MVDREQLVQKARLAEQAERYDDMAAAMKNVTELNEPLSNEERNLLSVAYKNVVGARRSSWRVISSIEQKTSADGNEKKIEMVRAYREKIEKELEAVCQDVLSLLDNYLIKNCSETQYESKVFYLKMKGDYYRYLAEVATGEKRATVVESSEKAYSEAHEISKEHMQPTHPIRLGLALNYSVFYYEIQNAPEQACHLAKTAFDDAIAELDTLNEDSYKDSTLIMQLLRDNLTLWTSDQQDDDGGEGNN
Assay: Isothermal titration calorimetry (ITC) of 14-3-3 binding to peptide
Details: for ΔG / Kd / ΔH / -TΔS: 25 °C; for Kd: Table S6 (unit as in Table S5)
Description: 14-3-3γ protein expression (FP/ITC experiments)
A pPROEX HTb expression vector encoding the human 14-3-3 protein gamma (14-3-3γ) with an N-terminal his6-tag was transformed by heat shock into NiCo21 (DE3) competent cells. Single colonies were cultured in 50 mL LB medium (100 µg/mL ampicillin). After overnight incubation at 37 °C, cultures were transferred to 2 L TB media (100 µg/mL ampicillin, 1 mM MgCl2) and incubated at 37 °C until an OD600 nm of 0.8-1.2 was reached. Protein expression was then induced with 0.4 mM isopropyl-β-d-thiogalactoside (IPTG), and cultures were incubated overnight at 18 °C. Cells were harvested by centrifugation (8600 rpm, 20 minutes, 4 °C) and resuspended in lysis buffer (50 mM Hepes, pH 8.0, 300 mM NaCl, 12.5 mM imidazole, 5 mM MgCl2, 2 mM βME) containing cOmplete™ EDTA-free Protease Inhibitor Cocktail tablets (1 tablet/100 ml lysate) and benzonase (1 µl/100 ml). After lysis using a C3 Emulsiflex-C3 homogenizer (Avestin), the cell lysate was cleared by centrifugation (20000 rpm, 30 minutes, 4 °C) and purified using Ni2+-affinity chromatography (Ni-NTA superflow cartridges, Qiagen).
Typically two 5 mL columns (flow 5 mL/min) were used for a 2 L culture in which the lysate was loaded on the column washed with 10 CV wash buffer (50 mM Hepes, pH 8.0, 300 mM NaCl, 25 mM imidazole, 2 mM βME) and eluted in several fractions (2-4 CV) of elution buffer (50 mM Hepes, pH 8.0, 300 mM NaCl, 250 mM imidazole, 2 mM βME). Fractions containing the 14-3-3 protein were combined and dialyzed into 25 mM HEPES pH 8.0, 100 mM NaCl, 10 mM MgCl2, 500 µM TCEP. […]
The peptides 1 and 2a-d were synthesized on 50 µmol scale on a Rink amide MBHA resin (Novabiochem, 0.52 mmol/g loading) using an automated Intavis MultiPep RSi peptide synthesizer.
Deprotection was performed twice per cycle with 20% v/v piperidine in DMF for 8 minutes. Fmoc-protected amino acids were mixed in 5 equivalents of HBTU and 9 equivalents of DIPEA in DMF, and coupled to the resin. With the exception of phosphoserine, which was coupled once for 60 minutes, all amino acids were coupled to the resin twice for 30 minutes. Capping of unreacted amino acids was performed with a mixture of acetic anhydride/pyridine/DMF (1:1:3) for 5 minutes. βAla was incorporated as a spacer between the sequence and Lys(Alloc), to which a FITC fluorophore will be coupled for fluorescence anisotropy studies.
The peptides 1 and 2e-i were synthesized manually on a 50 µmol scale using Rink amide MBHA resin (Novabiochem, 0.52 mmol/g loading) via Fmoc based solid phase peptide synthesis. […]
(lex: 485 ± 20 nm; lem: 535 ± 25 nm; mirror: Dichroic 510; flashes: 20; integration time: 50 ms; settle time:
0 ms; gain: optimal; and Z-position: calculated from well). […]
Data was obtained and averaged based on two
To determine the cooperativity parameters from the 2D-titration of 14-3-3/ChREBP/2d (as described above) we have used the general framework for straightforward model construction of multi-component thermodynamic equilibrium systems as described by Geertjens et al. (2021).10 This general platform generates a model to describe multi-component equilibrium systems when given a system description.
In our case we gave the following system description: […]
α (with 95% confidence interval) and the error-landscape of the determine parameters.
Fluorescence anisotropy (FA) – Selectivity study: Peptides representing 14-3-3 binding partners (including ChREBP) were titrated in a 2-fold dilution series (starting at 100 µM) to 20 nM of fluorescein-labeled peptide 2d in presence and absence of, respectively, 2 µM 14-3-3γ in FA buffer (10 mM HEPES pH 7.4, 150 mM NaCl, 0.1% (v/v) Tween20, 0.1% (w/v) BSA). Dilution series were made in a polystyrene (non-binding) low-volume Corning Black Round Bottom 384-well plates (Corning 4514 or 4511).
Measurements were performed directly after plate preparation, using a Tecan Infinite F500 plate reader at room temperature (lex: 485 ± 20 nm; lem: 535 ± 25 nm; mirror: Dichroic 510; flashes: 20; integration […]

[1] = Table S5, ITC Kd / Kd of peptide 1, first unlabelled line (replicate 1)
[2] = Table S5, ITC Kd / Kd of peptide 1, second unlabelled line (replicate 2)
[3] = Table S5, ITC Kd of peptide divided by Kd of peptide 1, mean of n = 2
[4] = Table S5, ΔG minus ΔG of peptide 1, ITC, first unlabelled line (replicate 1)
[5] = Table S5, ΔG minus ΔG of peptide 1, ITC, second unlabelled line (replicate 2)
[6] = Table S5, ΔG of peptide minus ΔG of peptide 1, ITC, mean of n = 2
[7] = ITC, average of two runs, read-out: Kd
[8] = Table S6 (unit given in Fig. 4 legend), ITC, average of two runs
[9] = Table S6, ITC, average of two runs

| SMILES | Fold change to 1 [1] | Fold change to 1 [2] | ΔG (Table S5, ITC, mean of n = 2) [kcal/mol] | ΔG (Table S5, ITC, replicate 1) [kcal/mol] | ΔG (Table S5, ITC, replicate 2) [kcal/mol] | ΔΔG to 1 [4] [kcal/mol] | ΔΔG to 1 [5] [kcal/mol] | ΔΔG to 1 [6] [kcal/mol] | Kd [7] [nM] | Kd (ITC, run 1) | Kd (ITC, run 2) | ΔH [8] | -TΔS [9] | ΔG [9] | -TΔS (Table S6, ITC, run 1) | ΔG (Table S6, ITC, run 1) | ΔH (Table S6, ITC, run 1) | -TΔS (Table S6, ITC, run 2) | ΔG (Table S6, ITC, run 2) | ΔH (Table S6, ITC, run 2) | also measured |
| --- | --- | --- | --- | --- | --- | --- | --- | --- | --- | --- | --- | --- | --- | --- | --- | --- | --- | --- | --- | --- | --- |
| CCC[C@H](NC(=O)[C@H](N)CCCCN)C(=O)N[C@@H](Cc1ccc([N+](=O)[O-])cc1)C(=O)N[C@@H](C)C(=O)N[C@@H](COP(=O)(O)O)C(=O)N[C@@H](Cc1ccc([N+](=O)[O-])cc1)C(=O)N[C@@H](CO)CC(=O)NCCC(=O)N[C@@H](Cc1ccc([N+](=O)[O-])cc1)C(=O)N[C@@H](CCCCN)C(N)=O [3a] (H-[dK][Nva][Phe(4-NO2)]A[pS][Phe(4-NO2)][β3hS][βAla][Phe(4-NO2)]K-NH2; N-terminus and C-terminus assumed) | 2.0 | 1.5 | -9.7 | -9.6 | -9.8 | 0.4 | 0.3 | 0.3 | 79.1 | 8,86E-08 M | 6,97E-08 M | -7,40 kcal mol^-1 | -2,29 kcal mol^-1 | -9,69 kcal mol^-1 | -1,624 kcal mol^-1 | -9,622 kcal mol^-1 | -7,998 kcal mol^-1 | -2,955 kcal mol^-1 | -9,764 kcal mol^-1 | -6,809 kcal mol^-1 | Fold change to 1 [3]: 1.8 |
| CCC[C@H](NC(=O)[C@H](N)CCCCN)C(=O)N[C@@H](Cc1ccc([N+](=O)[O-])cc1)C(=O)NC(Cc1cscn1)C(=O)N[C@@H](COP(=O)(O)O)C(=O)N[C@@H](Cc1ccc(O)cc1)C(=O)N[C@@H](CO)CC(=O)NCCC(=O)N[C@@H](Cc1ccc([N+](=O)[O-])cc1)C(=O)N[C@@H](CCCCN)C(N)=O (stereo partly drawn) [4a] (H-[dK][Nva][Phe(4-NO2)][ξAla(4-thiazolyl)][pS]Y[β3hS][βAla][Phe(4-NO2)]K-NH2; N-terminus and C-terminus assumed) | 2.8 | 1.3 | -9.6 | -9.4 | -9.8 | 0.6 | 0.2 | 0.4 | 93.6 | 1,26E-07 M | 6,09E-08 M | -6,64 kcal mol^-1 | -2,99 kcal mol^-1 | -9,63 kcal mol^-1 | -3,582 kcal mol^-1 | -9,411 kcal mol^-1 | -5,83 kcal mol^-1 | -2,393 kcal mol^-1 | -9,844 kcal mol^-1 | -7,45 kcal mol^-1 | Fold change to 1 [3]: 2.1 |
| CCC[C@H](NC(=O)[C@H](N)CCCCN)C(=O)N[C@@H](Cc1ccc([N+](=O)[O-])cc1)C(=O)NC(Cc1cscn1)C(=O)N[C@@H](COP(=O)(O)O)C(=O)N[C@@H](Cc1ccccc1)C(=O)N[C@@H](CO)CC(=O)NCCC(=O)N[C@@H](Cc1ccc([N+](=O)[O-])cc1)C(=O)N[C@@H](CCCCN)C(N)=O (stereo partly drawn) [4b] (H-[dK][Nva][Phe(4-NO2)][ξAla(4-thiazolyl)][pS]F[β3hS][βAla][Phe(4-NO2)]K-NH2; N-terminus and C-terminus assumed) | 0.6 | 0.8 | -10.2 | -10.3 | -10.1 | -0.3 | -0.1 | -0.2 | 31.9 | 2,62E-08 M | 3,76E-08 M | -7,40 kcal mol^-1 | -2,87 kcal mol^-1 | -10,24 kcal mol^-1 | -2,391 kcal mol^-1 | -10,34 kcal mol^-1 | -8,024 kcal mol^-1 | -3,345 kcal mol^-1 | -10,13 kcal mol^-1 | -6,783 kcal mol^-1 | Fold change to 1 [3]: 0.7 |
| CCC[C@H](NC(=O)[C@H](N)CCCCN)C(=O)N[C@@H](Cc1ccc([N+](=O)[O-])cc1)C(=O)NC(Cc1cscn1)C(=O)N[C@@H](COP(=O)(O)O)C(=O)N[C@@H](C)C(=O)N[C@@H](CO)CC(=O)NCCC(=O)N[C@@H](Cc1ccc([N+](=O)[O-])cc1)C(=O)N[C@@H](CCCCN)C(N)=O (stereo partly drawn) [4c] (H-[dK][Nva][Phe(4-NO2)][ξAla(4-thiazolyl)][pS]A[β3hS][βAla][Phe(4-NO2)]K-NH2; N-terminus and C-terminus assumed) | 15.0 | 18.9 | -8.3 | -8.4 | -8.3 | 1.6 | 1.7 | 1.7 | 764 | 6,72E-07 M | 8,56E-07 M | -4,81 kcal mol^-1 | -3,54 kcal mol^-1 | -8,35 kcal mol^-1 | -3,445 kcal mol^-1 | -8,421 kcal mol^-1 | -4,976 kcal mol^-1 | -3,629 kcal mol^-1 | -8,278 kcal mol^-1 | -4,649 kcal mol^-1 | ΔΔG of point mutation (ITC) (ITC, relative to 1, mean ± SD, SD): 1.7 ± 0.1 kcal/mol |
